According to patent publication US20190330224A1, “ACC INHIBITORS AND USES THEREOF” (Gilead Apollo, LLC, priority 2015, published 2019):
Converted amounts (≈) assume the structure as drawn.

Tests used:
[1] = test system: C. parapsilosis ATCC 22019; assay: Anti-Fungal Activity Assay (broth microtiter MIC), C. parapsilosis; format: cell-based, Candida parapsilosis; settings: Lodderomyces parapsilosis, ATCC22019, 48 h, 3 replicates; MIC recorded at 48 h; read-out: MIC C. parapsilosis ATCC 22019
In short: (§1)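 Candida strains were grown from frozen stock on Sabouraud dextrose agar overnight at 35° C, then suspended directly in RPMI 1640+MOPS and quantified against standard curves. Broth microdilution MIC plates followed CLSI M27-A3; MICs were read visually against growth control at 48 h, with a 24 h read added for soraphen.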

Fungal ACC2 = Fungal ACC2 (UniProt Q00955); settings: read-out: Fungal ACC2 (IC50, in vitro ACC2 inhibition)
Sequence of Fungal ACC2 (Q00955 whole entry): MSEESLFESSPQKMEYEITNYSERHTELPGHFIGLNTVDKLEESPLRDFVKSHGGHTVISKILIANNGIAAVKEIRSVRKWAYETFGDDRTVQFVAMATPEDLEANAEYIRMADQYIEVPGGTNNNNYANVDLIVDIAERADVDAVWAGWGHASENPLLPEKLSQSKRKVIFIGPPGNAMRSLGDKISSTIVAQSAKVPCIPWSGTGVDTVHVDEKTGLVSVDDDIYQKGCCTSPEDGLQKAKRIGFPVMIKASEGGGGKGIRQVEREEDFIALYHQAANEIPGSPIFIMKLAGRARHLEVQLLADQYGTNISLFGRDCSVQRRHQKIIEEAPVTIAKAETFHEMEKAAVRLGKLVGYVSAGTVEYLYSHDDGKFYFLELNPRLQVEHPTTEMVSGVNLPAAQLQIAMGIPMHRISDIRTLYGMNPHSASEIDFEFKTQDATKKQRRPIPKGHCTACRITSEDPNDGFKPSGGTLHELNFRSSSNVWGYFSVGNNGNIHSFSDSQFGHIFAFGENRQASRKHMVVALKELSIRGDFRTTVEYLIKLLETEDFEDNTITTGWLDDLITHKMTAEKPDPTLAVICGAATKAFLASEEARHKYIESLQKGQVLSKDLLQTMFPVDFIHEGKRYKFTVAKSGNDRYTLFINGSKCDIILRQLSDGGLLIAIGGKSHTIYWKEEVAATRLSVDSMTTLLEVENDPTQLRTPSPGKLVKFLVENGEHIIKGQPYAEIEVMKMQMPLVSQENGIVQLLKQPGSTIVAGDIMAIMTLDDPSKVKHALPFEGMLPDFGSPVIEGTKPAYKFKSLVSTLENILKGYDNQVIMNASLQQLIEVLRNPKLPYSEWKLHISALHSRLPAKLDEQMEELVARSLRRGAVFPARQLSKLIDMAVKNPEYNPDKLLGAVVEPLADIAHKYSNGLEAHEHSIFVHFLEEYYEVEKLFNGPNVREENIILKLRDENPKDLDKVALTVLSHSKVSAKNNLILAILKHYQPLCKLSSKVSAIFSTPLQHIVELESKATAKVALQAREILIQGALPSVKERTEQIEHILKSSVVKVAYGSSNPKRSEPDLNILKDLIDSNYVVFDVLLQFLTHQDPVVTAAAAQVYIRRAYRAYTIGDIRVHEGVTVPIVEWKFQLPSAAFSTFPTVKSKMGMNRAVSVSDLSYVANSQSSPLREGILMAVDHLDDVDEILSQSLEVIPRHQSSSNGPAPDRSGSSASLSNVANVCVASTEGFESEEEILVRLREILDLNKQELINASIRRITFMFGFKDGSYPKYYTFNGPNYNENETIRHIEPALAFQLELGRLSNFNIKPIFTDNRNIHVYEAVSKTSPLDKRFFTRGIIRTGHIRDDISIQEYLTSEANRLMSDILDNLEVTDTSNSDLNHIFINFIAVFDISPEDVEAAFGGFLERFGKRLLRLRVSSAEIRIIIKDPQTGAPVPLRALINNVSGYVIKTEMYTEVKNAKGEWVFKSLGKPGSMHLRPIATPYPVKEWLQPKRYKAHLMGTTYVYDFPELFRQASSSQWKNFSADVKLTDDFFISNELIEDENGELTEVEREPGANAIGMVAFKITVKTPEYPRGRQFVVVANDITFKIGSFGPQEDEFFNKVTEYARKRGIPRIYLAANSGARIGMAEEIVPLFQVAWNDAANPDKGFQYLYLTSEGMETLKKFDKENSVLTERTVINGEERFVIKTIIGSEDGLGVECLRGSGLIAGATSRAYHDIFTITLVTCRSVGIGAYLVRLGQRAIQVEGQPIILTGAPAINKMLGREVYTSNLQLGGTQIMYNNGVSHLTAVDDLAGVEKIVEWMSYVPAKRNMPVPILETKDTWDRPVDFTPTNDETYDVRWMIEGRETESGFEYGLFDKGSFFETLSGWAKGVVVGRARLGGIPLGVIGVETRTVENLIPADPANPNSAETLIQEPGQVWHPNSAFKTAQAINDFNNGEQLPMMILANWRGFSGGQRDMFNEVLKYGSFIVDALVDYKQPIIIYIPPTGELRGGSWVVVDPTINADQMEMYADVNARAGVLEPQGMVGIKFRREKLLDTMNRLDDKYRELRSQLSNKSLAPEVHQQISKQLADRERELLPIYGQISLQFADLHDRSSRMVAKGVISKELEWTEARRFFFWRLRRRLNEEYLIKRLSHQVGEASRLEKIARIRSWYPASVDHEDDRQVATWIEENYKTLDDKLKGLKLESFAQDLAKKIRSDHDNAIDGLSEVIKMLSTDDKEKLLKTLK

C. krusei ATCC 6258 = assay: Anti-Fungal Activity Assay (broth microtiter MIC), C. krusei; format: cell-based, Candida krusei; settings: Pichia kudriavzevii, ATCC6258, 48 h, 3 replicates; MIC recorded at 48 h; read-out: MIC C. krusei ATCC 6258
In short: as §1

C. albicans ATCC 90028 = assay: Anti-Fungal Activity Assay (broth microtiter MIC), C. albicans; format: cell-based, Candida albicans; settings: Candida albicans, ATCC90028, 48 h, 3 replicates; MIC recorded at 48 h; read-out: MIC C. albicans ATCC 90028
In short: as §1

Human ACC2 = Human ACC2 (Homo sapiens, UniProt O00763); assay: In vitro ACC2 inhibition assay (ADP-Glo), human ACC2; format: biochemical; settings: 5 nM ACC2, 20 μM ATP, 20 μM acetyl-CoA
Sequence of Human ACC2 (O00763 whole entry): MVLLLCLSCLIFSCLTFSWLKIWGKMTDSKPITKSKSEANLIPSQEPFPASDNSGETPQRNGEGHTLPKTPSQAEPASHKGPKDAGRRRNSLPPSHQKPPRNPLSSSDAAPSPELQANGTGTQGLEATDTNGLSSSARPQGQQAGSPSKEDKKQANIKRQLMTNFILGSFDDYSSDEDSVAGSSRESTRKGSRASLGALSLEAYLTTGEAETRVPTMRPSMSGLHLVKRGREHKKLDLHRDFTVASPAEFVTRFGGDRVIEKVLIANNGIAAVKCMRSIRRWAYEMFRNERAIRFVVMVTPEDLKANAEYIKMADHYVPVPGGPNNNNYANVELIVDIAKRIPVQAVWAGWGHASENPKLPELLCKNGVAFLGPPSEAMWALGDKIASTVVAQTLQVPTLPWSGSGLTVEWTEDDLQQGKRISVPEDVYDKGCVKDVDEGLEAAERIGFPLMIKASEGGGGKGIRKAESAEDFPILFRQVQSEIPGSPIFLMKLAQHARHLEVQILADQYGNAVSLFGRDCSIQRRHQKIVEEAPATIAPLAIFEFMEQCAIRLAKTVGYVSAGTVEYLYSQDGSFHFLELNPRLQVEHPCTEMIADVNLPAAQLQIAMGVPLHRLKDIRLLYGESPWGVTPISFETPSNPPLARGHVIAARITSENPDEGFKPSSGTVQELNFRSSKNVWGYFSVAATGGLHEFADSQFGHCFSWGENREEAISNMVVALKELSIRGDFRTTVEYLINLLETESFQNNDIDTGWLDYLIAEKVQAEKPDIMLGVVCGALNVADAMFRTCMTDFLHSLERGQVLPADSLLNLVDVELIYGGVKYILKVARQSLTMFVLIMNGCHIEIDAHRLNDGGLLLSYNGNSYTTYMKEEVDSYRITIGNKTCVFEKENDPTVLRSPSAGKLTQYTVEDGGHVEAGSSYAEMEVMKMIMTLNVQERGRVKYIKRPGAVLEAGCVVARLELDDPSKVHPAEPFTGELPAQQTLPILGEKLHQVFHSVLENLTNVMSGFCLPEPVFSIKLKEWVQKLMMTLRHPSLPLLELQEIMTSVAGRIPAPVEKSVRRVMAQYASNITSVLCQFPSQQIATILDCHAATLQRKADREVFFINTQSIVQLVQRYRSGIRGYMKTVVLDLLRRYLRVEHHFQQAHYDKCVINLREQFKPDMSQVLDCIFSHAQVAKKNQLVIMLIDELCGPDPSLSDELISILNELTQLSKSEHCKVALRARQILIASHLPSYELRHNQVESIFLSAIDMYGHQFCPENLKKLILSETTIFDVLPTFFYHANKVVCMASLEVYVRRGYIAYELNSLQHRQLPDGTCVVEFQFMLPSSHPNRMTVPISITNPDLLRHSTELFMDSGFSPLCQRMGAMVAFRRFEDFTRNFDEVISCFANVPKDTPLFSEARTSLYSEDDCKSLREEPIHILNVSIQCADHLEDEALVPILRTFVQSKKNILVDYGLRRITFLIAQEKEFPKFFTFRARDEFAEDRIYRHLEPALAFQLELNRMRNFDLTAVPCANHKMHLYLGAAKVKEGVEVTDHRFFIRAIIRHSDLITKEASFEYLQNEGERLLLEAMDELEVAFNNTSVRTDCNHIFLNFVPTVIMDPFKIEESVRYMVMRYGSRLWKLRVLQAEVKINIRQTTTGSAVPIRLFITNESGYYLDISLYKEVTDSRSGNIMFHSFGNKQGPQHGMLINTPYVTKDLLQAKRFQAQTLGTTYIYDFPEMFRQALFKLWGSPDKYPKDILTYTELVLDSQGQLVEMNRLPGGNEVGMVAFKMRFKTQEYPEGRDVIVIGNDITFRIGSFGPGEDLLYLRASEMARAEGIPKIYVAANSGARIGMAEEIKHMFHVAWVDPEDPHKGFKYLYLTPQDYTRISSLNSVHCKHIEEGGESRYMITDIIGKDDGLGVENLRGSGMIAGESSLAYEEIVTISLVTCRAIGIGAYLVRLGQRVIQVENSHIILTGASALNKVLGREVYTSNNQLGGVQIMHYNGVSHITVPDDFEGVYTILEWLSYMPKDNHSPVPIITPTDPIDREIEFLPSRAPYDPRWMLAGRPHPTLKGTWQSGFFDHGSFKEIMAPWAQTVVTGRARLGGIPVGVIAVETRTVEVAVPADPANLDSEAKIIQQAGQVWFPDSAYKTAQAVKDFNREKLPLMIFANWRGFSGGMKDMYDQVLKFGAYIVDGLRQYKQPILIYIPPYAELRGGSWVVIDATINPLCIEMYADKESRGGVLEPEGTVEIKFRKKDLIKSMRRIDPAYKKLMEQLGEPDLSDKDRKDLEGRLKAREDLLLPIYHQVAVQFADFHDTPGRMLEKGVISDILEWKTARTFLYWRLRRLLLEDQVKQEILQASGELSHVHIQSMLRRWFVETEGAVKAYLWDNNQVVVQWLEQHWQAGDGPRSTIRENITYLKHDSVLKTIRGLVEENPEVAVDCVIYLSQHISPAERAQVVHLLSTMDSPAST

Compound	MIC [1] [µg/mL]	IC50 (Fungal ACC2) [nM]	MIC (C. krusei ATCC 6258) [µg/mL]	MIC (C. albicans ATCC 90028) [µg/mL]	IC50 (Human ACC2) [nM]
COCCO[C@@H](Cn1c(=O)n([C@@H]2CNC(=O)C2)c(=O)c2c(C)c(-n3nccn3)sc21)c1cc(F)ccc1OC [Compound I-90, 1-((R)-2-(5-fluoro-2-methoxyphenyl)-2-(2-methoxy-ethoxy)ethyl)-5-methyl-3-((S)-5-oxopyrrolidin-3-yl)-6-(2H-1,2,3-triazol-2-yl)thieno[2,3-d]pyrimidine-2,4(1H,3H)-dione]	2.1 to 4 (≈ 3.76 to 7.16 µM)	0.7 to 2	2.1 to 4 (≈ 3.76 to 7.16 µM)	2.1 to 4 (≈ 3.76 to 7.16 µM)	2 to 10
COc1ccc(F)cc1[C@H](Cn1c(=O)n([C@@H]2CNC(=O)C2)c(=O)c2c(C)c(-n3nccn3)sc21)OCCO [Compound I-91, 1-((R)-2-(5-fluoro-2-methoxyphenyl)-2-(2-hydroxy-ethoxy)ethyl)-5-methyl-3-((S)-5-oxopyrrolidin-3-yl)-6-(2H-1,2,3-triazol-2-yl)thieno[2,3-d]pyrimidine-2,4(1H,3H)-dione]	2.1 to 4 (≈ 3.86 to 7.35 µM)	0.7 to 2	2.1 to 4 (≈ 3.86 to 7.35 µM)	2.1 to 4 (≈ 3.86 to 7.35 µM)	2 to 10
COCCO[C@@H](Cn1c(=O)n([C@@H]2CC(=O)N(C)C2)c(=O)c2c(C)c(-n3nccn3)sc21)c1cc(F)ccc1OC [Compound I-92, 1-((R)-2-(5-fluoro-2-methoxyphenyl)-2-(2-methoxy-ethoxy)ethyl)-5-methyl-3-((R)-1-methyl-5-oxopyrrolidin-3-yl)-6-(2H-1,2,3-triazol-2-yl)thieno[2,3-d]pyrimidine-2,4(1H,3H)-dione]	2.1 to 4 (≈ 3.67 to 6.99 µM)	0.7 to 2	2.1 to 4 (≈ 3.67 to 6.99 µM)	2.1 to 4 (≈ 3.67 to 6.99 µM)	10 to 100
COc1ccc(F)cc1[C@H](Cn1c(=O)n([C@@H]2CC(=O)N(C)C2)c(=O)c2c(C)c(-n3nccn3)sc21)OCCO [Compound I-93, 1-((R)-2-(5-fluoro-2-methoxyphenyl)-2-(2-hydroxy-ethoxy)ethyl)-5-methyl-3-((R)-1-methyl-5-oxopyrrolidin-3-yl)-6-(2H-1,2,3-triazol-2-yl)thieno[2,3-d]pyrimidine-2,4(1H, 3H)-dione]	2.1 to 4 (≈ 3.76 to 7.16 µM)	0.7 to 2	2.1 to 4 (≈ 3.76 to 7.16 µM)	2.1 to 4 (≈ 3.76 to 7.16 µM)	2 to 10
COCCO[C@@H](Cn1c(=O)n([C@H]2CC(=O)N(C)C2)c(=O)c2c(C)c(-n3nccn3)sc21)c1cc(F)ccc1OC [Compound I-94, 1-((R)-2-(5-fluoro-2-methoxyphenyl)-2-(2-methoxy-ethoxy)ethyl)-5-methyl-3-((S)-1-methyl-5-oxopyrrolidin-3-yl)-6-(2H-1,2,3-triazol-2-yl)thieno[2,3-d]pyrimidine-2,4(1H, 3H)-dione]	2.1 to 4 (≈ 3.67 to 6.99 µM)	0.7 to 2	2.1 to 4 (≈ 3.67 to 6.99 µM)	2.1 to 4 (≈ 3.67 to 6.99 µM)	2 to 10
COc1ccc(F)cc1[C@H](Cn1c(=O)n([C@H]2CC(=O)N(C)C2)c(=O)c2c(C)c(-n3nccn3)sc21)OCCO [Compound I-95, 1-((R)-2-(5-fluoro-2-methoxyphenyl)-2-(2-hydroxy-ethoxy)ethyl)-5-methyl-3-((S)-1-methyl-5-oxopyrrolidin-3-yl)-6-(2H-1,2,3-triazol-2-yl)thieno[2,3-d]pyrimidine-2,4(1H,3H)-dione]	2.1 to 4 (≈ 3.76 to 7.16 µM)	2 to 10	2.1 to 4 (≈ 3.76 to 7.16 µM)	2.1 to 4 (≈ 3.76 to 7.16 µM)	2 to 10
COCCO[C@@H](Cn1c(=O)n([C@H]2CCN(C(=O)C(C)C)C2)c(=O)c2c(C)c(-n3nccn3)sc21)c1cc(F)ccc1OC [Compound I-96, 1-((R)-2-(5-fluoro-2-methoxyphenyl)-2-(2-methoxy-ethoxy)ethyl)-3-((S)-1-isobutyrylpyrrolidin-3-yl)-5-methyl-6-(2H-1,2,3-triazol-2-yl)thieno[2,3-d]pyrimidine-2,4(1H,3H)-dione]	2.1 to 4 (≈ 3.42 to 6.51 µM)	2 to 10	2.1 to 4 (≈ 3.42 to 6.51 µM)	2.1 to 4 (≈ 3.42 to 6.51 µM)	10 to 100
COc1ccc(F)cc1[C@H](Cn1c(=O)n([C@H]2CCN(C(=O)C(C)C)C2)c(=O)c2c(C)c(-n3nccn3)sc21)OCCO [Compound I-97, 1-((R)-2-(5-fluoro-2-methoxyphenyl)-2-(2-hydroxy-ethoxy)ethyl)-3-((S)-1-isobutyrylpyrrolidin-3-yl)-5-methyl-6-(2H-1,2,3-triazol-2-yl)thieno[2,3-d]pyrimidine-2,4(1H,3H)-dione]	2.1 to 4 (≈ 3.5 to 6.66 µM)	0.7 to 2	2.1 to 4 (≈ 3.5 to 6.66 µM)	2.1 to 4 (≈ 3.5 to 6.66 µM)	10 to 100
COCCO[C@@H](Cn1c(=O)n(CCN2CCCCC2=O)c(=O)c2c(C)c(-n3nccn3)sc21)c1cc(F)ccc1OC [Compound I-98, (R)-1-(2-(S-fluoro-2-methoxyphenyl)-2-(2-methoxy-ethoxy)ethyl)-5-methyl-3-(2-(2-oxopiperidin-1-yl)ethyl)-6-(2H-1,2,3-triazol-2-yl)thieno[2,3-d]pyrimidine-2,4(1H3H)-dione]	2.1 to 4 (≈ 3.5 to 6.66 µM)	2 to 10	2.1 to 4 (≈ 3.5 to 6.66 µM)	2.1 to 4 (≈ 3.5 to 6.66 µM)	10 to 100
